Patent US6914045B2, “Glycopeptide antibiotics” (Wyeth Holdings Corporation, priority 2001, dated 2005)
Converted amounts (≈) assume the structure as drawn. Numbered stars: 1 amine (or outer) side, 2 acyl side, 3 side chain; on linkers, the order of the positions; unused ones are H or OH. Square brackets hold non-standard residues; d marks the D form. Peptide text beside a SMILES is read from it. ξ: configuration not given here. X1 = N=C1NCC(C(O)C(N[*:1])C(=O)[*:2])N1C1OC(CO)C(O)C(O)C1O; ξEnduracididine(βξ-OH,4'ξ) = N=C1NCC(C(O)C(N)C(=O)O)N1; ξCha(3ξ-Me) = CC(C1CCCCC1)C(N)C(=O)O; Cha = N[CH](CC1CCCCC1)C(=O)O

Key:
Assay in all cases: in vitro antibacterial evaluation, MIC by broth dilution
Format in all cases: cell-based
Conditions in all cases: broth dilution, 18 hours at 35° C.
Enterococcus sp. = test system: Enterococcus sp.
How it was run: (§1)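 Following National Committee for Clinical Laboratory Standards recommendations (M7-A2), susceptibility was measured by dilution in Muller-Hinton II […]. Bacteria were seeded at 5×10^5 CFU/mL against compound concentrations from 64 down to 0.06 μg/mL.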

Staphylococcus sp. = test system: Staphylococcus sp.
How it was run: as §1

Streptococcus sp. = test system: Streptococcus sp.
How it was run: as §1

Escherichia coli = test system: Escherichia coli
How it was run: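 Broth dilution in Muller-Hinton II medium per NCCLS standard M7-A2, with an inoculum of 5×10^5 CFU/mL and antibiotic tested over 64-0.06 μg/mL. MIC was taken as the lowest concentration inhibiting visible growth.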

## CC(C1CCCCC1)C1NC(=O)CNC(=O)C(CO)NC(=O)C(C(O)C2CNC(=N)N2C2OC(CO)C(O)C(O)C2O)NC(=O)C(C(O)C2CNC(=N)N2)NC(=O)C(CC2CCCCC2)NC1=O (stereo not drawn) [Example 53, Cyclo[3-cyclohexylalanyl-3-(2-iminoimidazolidin-4-yl)seryl-3-(3-hexopyranosyl-2-iminoimidazolidin-4-yl)serylserylglycyl-3-cyclohexyl-2-aminobutanyl]] (cyclo(G[ξCha(3ξ-Me)][Cha][ξEnduracididine(βξ-OH,4'ξ)][X1]S); configuration not given here)
Enterococcus sp.; Enterococcus avium (GC 4558)
  MIC Enterococcus avium (GC 4558): 4 µg/mL (≈ 4.14 µM)
Enterococcus sp.; Enterococcus faecalis (ATCC 29212)
  MIC Enterococcus faecalis (ATCC 29212): 8 µg/mL (≈ 8.27 µM)
Enterococcus sp.; Enterococcus faecalis (GC 4552)
  MIC Enterococcus faecalis (GC 4552): 8 µg/mL (≈ 8.27 µM)
Enterococcus sp.; Enterococcus faecalis (GC 4553)
  MIC Enterococcus faecalis (GC 4553): 4 µg/mL (≈ 4.14 µM)
Enterococcus sp.; Enterococcus faecalis (GC 4554)
  MIC Enterococcus faecalis (GC 4554): 16 µg/mL (≈ 16.5 µM)
Enterococcus sp.; Enterococcus faecalis (GC 6189)
  MIC Enterococcus faecalis (GC 6189): 4 µg/mL (≈ 4.14 µM)
Enterococcus sp.; Enterococcus faecium (GC 2243)
  MIC Enterococcus faecium (GC 2243): 2 µg/mL (≈ 2.07 µM)
Enterococcus sp.; Enterococcus faecium (GC 4556)
  MIC Enterococcus faecium (GC 4556): 8 µg/mL (≈ 8.27 µM)
Enterococcus sp.; Enterococcus faecium (GC 4557)
  MIC Enterococcus faecium (GC 4557): 2 µg/mL (≈ 2.07 µM)
Enterococcus sp.; strain ATCC 29212
  MIC Enterococcus faecalis (ATCC 29212): 8 µg/mL (≈ 8.27 µM)
Enterococcus sp.; strain GC 2242
  MIC Enterococcus faecalis (GC 2242): 8 µg/mL (≈ 8.27 µM)
Enterococcus sp.; strain GC 2243
  MIC Enterococcus faecium (GC 2243): 2 µg/mL (≈ 2.07 µM)
Enterococcus sp.; strain GC 2691
  MIC Enterococcus faecalis (GC 2691): 8 µg/mL (≈ 8.27 µM)
Enterococcus sp.; strain GC 3059
  MIC Enterococcus faecalis (GC 3059): 8 µg/mL (≈ 8.27 µM)
Enterococcus sp.; strain GC 4552
  MIC Enterococcus faecalis (GC 4552): 8 µg/mL (≈ 8.27 µM)
Enterococcus sp.; strain GC 4553
  MIC Enterococcus faecalis (GC 4553): 4 µg/mL (≈ 4.14 µM)
Enterococcus sp.; strain GC 4554
  MIC Enterococcus faecalis (GC 4554): 16 µg/mL (≈ 16.5 µM)
Enterococcus sp.; strain GC 4556
  MIC Enterococcus faecium (GC 4556): 8 µg/mL (≈ 8.27 µM)
Enterococcus sp.; strain GC 4557
  MIC Enterococcus faecium (GC 4557): 2 µg/mL (≈ 2.07 µM)
Enterococcus sp.; strain GC 4558
  MIC Enterococcus avium (GC 4558): 4 µg/mL (≈ 4.14 µM)
Enterococcus sp.; strain GC 6189
  MIC Enterococcus faecalis (GC 6189): 4 µg/mL (≈ 4.14 µM)
Staphylococcus sp.; strain ATCC 29213
  MIC Staphylococcus aureus (ATCC 29213): 2 µg/mL (≈ 2.07 µM)
Staphylococcus sp.; strain GC 1131
  MIC Staphylococcus aureus (GC 1131): 4 µg/mL (≈ 4.14 µM)
Staphylococcus sp.; strain GC 3051
  MIC Staphylococcus aureus (GC 3051): 2 µg/mL (≈ 2.07 µM)
Staphylococcus sp.; strain GC 3053
  MIC Staphylococcus aureus (GC 3053): 4 µg/mL (≈ 4.14 µM)
Staphylococcus sp.; strain GC 4541
  MIC Staphylococcus aureus (GC 4541): 4 µg/mL (≈ 4.14 µM)
Staphylococcus sp.; strain GC 4542
  MIC Staphylococcus aureus (GC 4542): 2 µg/mL (≈ 2.07 µM)
Staphylococcus sp.; strain GC 4543
  MIC Staphylococcus aureus-SMITH (GC 4543): 2 µg/mL (≈ 2.07 µM)
Staphylococcus sp.; strain GC 4544
  MIC Staphylococcus aureus (GC 4544): 4 µg/mL (≈ 4.14 µM)
Staphylococcus sp.; strain GC 4545
  MIC Staphylococcus aureus (GC 4545): 2 µg/mL (≈ 2.07 µM)
Staphylococcus sp.; strain GC 4546
  MIC Staphylococcus haemolyticus (GC 4546): 1 µg/mL (≈ 1.03 µM)
Staphylococcus sp.; strain GC 4547
  MIC Coagulase Negative Staphylococcus (GC 4547): 2 µg/mL (≈ 2.07 µM)
Staphylococcus sp.; strain GC 4548
  MIC Coagulase Negative Staphylococcus (GC 4548): 2 µg/mL (≈ 2.07 µM)
Staphylococcus sp.; strain GC 4549
  MIC Coagulase Negative Staphylococcus (GC 4549): 1 µg/mL (≈ 1.03 µM)
Staphylococcus sp.; strain GC 4551
  MIC Coagulase Negative Staphylococcus (GC 4551): 2 µg/mL (≈ 2.07 µM)
Streptococcus sp.; strain ATCC 6301
  MIC Streptococcus pneumoniae (ATCC 6301): 1 µg/mL (≈ 1.03 µM)
Streptococcus sp.; strain GC 1894
  MIC Streptococcus pneumoniae (GC 1894): 1 µg/mL (≈ 1.03 µM)
Streptococcus sp.; strain GC 4563
  MIC Streptococcus pyogenes (GC 4563): 1 µg/mL (≈ 1.03 µM)
Streptococcus sp.; strain GC 4564
  MIC Streptococcus agalactiae (GC 4564): 1 µg/mL (≈ 1.03 µM)
Streptococcus sp.; strain GC 4565
  MIC Streptococcus pneumoniae (GC 4565): 4 µg/mL (≈ 4.14 µM)
Escherichia coli; strain ATCC 25922
  MIC Escherichia coli (ATCC 25922): 128 µg/mL (≈ 132 µM)
Escherichia coli; strain GC 4559
  MIC Escherichia coli (GC 4559): 128 µg/mL (≈ 132 µM)
Escherichia coli; strain GC 4560
  MIC Escherichia coli (GC 4560): 4 µg/mL (≈ 4.14 µM)
